Experimental data taken from patent US11731965B2, “Tetrahydroprotoberberine compound, preparation method therefor and uses thereof, and pharmaceutical composition” (SHANGHAI INSTITUTE OF MATERIA MEDICA, CHINESE ACADEMY OF …, priority 2017, dated 2023).
pEC50, pIC50: −log10 of the molar value. Structures can show the parent of a compound that is named as a salt.

Columns and labels:
[1] = target: T1, human recombinant D1 receptor (Homo sapiens, UniProt P21728); experiment: D1 antagonistic activity test (LANCE cAMP, antagonism of dopamine-induced cAMP production in HEK293 cells); type: cell-based; settings: HEK293 cells expressing human recombinant D1 receptor; test concentration 0.1 nM to 10000 nM; read-out: D1 Antagonistic Activity (IC50, nmol/L)
T1 construct: expressed in transfected cells; host or cells: HEK293
T1 sequence (P21728 whole entry): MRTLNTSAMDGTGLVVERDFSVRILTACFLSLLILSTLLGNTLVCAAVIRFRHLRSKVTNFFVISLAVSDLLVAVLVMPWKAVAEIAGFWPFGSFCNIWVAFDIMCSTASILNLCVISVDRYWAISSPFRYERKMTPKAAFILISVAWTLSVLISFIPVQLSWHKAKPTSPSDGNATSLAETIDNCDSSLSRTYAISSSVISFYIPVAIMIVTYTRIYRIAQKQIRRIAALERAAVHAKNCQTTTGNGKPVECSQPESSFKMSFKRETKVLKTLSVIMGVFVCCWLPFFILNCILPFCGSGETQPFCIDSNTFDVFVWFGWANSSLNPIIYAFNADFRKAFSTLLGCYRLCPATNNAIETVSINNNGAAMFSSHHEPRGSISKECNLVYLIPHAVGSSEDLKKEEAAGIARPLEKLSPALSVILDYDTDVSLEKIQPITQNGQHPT
Procedure: • 1) D1 antagonistic activity test
The D1 antagonism of the compound was evaluated by testing the antagonistic action of the compounds against dopamine on the induction of cAMP production in HEK293 cells. The cAMP concentration test was performed according to the method described in the kit instructions. The test concentration of the compound was 0.1 nM to 10000 nM. SCH23390 was used as a positive control. The IC50 was calculated by Excelfit software.

[2] = target: T2, human recombinant D2 receptor (Homo sapiens, UniProt P14416); experiment: D2 antagonistic activity test (LANCE cAMP, antagonism of dopamine inhibition of cAMP production in HEK293 cells); type: cell-based; settings: HEK293 cells expressing human recombinant D2 receptor; test concentration 0.1 nM to 10000 nM; read-out: D2 Antagonistic Activity (IC50, nmol/L)
T2 construct: expressed in transfected cells; host or cells: HEK293
T2 sequence (P14416 whole entry): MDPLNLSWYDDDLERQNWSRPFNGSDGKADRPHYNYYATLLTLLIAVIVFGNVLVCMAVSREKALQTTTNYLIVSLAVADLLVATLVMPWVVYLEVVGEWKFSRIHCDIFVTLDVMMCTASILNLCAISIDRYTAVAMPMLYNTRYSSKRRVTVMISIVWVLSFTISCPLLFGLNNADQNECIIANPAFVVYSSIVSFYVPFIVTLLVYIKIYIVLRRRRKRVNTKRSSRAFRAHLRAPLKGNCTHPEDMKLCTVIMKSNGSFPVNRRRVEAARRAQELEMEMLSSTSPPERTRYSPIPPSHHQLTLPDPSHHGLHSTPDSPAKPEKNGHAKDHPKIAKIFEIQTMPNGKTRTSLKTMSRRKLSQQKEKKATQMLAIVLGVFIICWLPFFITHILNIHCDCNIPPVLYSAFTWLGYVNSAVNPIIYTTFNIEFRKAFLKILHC
Procedure: LANCE™ cAMP 384 Kit (PerkinElmer, USA) was used to test the antagonism of the compound against the D1 receptor using the HEK293 cells expressing human recombinant D1 receptor. The D1 antagonism of the compound was evaluated by testing the antagonistic action of the compounds against dopamine on the induction of cAMP production in HEK293 cells. The cAMP concentration test was performed according to the method described in the kit instructions. The test concentration of the compound was 0.1 nM to 10000 nM. SCH23390 was used as a positive control. The IC50 was calculated by Excelfit software. The test results of some compounds were shown in Table 1. • 2) D2 antagonistic activity test LANCE™ cAMP 384 Kit (PerkinElmer, USA) was used to test the antagonism of the compound against the D2 receptor using the HEK293 cells expressing human recombinant D2 receptor. The D2 antagonism of the compound was evaluated by testing the antagonistic action of the compounds against dopamine on the inhibition of cAMP production in HEK293 cells. The cAMP concentration test was performed according to the method described in the kit instructions. The test concentration of the compound was 0.1 nM to 10000 nM. Risperidone was used as a positive control. The IC50 was calculated by Excelfit software. The test results of some compounds were shown in Table 1 (ND means the test was not performed).

[3] = target: T3, human recombinant 5-HT1A receptor (Homo sapiens, UniProt P08908); experiment: 5-HT1A agonistic activity test (LANCE cAMP, inhibition of cAMP production in HEK293 cells); type: cell-based; settings: HEK293 cells expressing human recombinant 5-HT1A receptor; test concentration 0.1 nM to 10000 nM; read-out: 5-HT1A Agonistic Activity (EC50, nmol/L)
T3 construct: expressed in transfected cells; host or cells: HEK293
T3 sequence (P08908 1-422): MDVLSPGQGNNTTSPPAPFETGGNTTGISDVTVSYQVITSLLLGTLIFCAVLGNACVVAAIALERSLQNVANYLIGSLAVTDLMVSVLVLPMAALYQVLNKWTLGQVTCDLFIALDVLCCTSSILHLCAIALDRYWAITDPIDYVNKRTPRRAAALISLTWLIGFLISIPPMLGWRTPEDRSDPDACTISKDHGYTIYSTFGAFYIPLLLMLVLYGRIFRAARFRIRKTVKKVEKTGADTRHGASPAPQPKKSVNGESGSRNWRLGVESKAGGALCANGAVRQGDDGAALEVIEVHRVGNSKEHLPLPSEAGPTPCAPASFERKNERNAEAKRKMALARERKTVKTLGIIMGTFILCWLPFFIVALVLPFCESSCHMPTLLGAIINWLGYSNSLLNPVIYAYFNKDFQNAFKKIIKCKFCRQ
Procedure: • 3) 5-HT1A agonistic activity test
LANCE™ cAMP 384 Kit (PerkinElmer, USA) was used to test the agonistic effect of the compound on 5-HT1A receptor using the HEK293 cells expressing human recombinant 5-HT1A receptor. The 5-HT1A agonistic effect of the compound was evaluated by testing the inhibitory effect of the compound on cAMP production in HEK293 cells. The cAMP concentration test was performed according to the method described in the kit instructions. The test concentration of the compound was 0.1 nM to 10000 nM. 8-OH-DPAT was used as a positive control. The EC50 was calculated by Excelfit software.

[4] = test system: PCP-induced high spontaneous activity in mice; experiment: PCP-induced high spontaneous activity test in mice; type: in vivo, Male ICR mice; settings: dose by gavage that significantly reduces PCP (7 mg/kg ip) induced high spontaneous activity of mice vs model group
Procedure: PCP (phencylidine) was dissolved in physiological saline to prepare a 7 mg/kg solution. The test compound was formulated with a 0.5% CMC-Na solution to a solution with suitable concentration, ready-to-use. Male ICR mice were 18-22 g. Mice were randomly divided into a solvent control group, a model control group, a positive control group, and each test drug group during the test. There were 8 mice in each group. Mice in each group were given each test drug by gavage. 45 minutes after the test drug was administered, mice were injected with a PCP (7 mg/kg) solution intraperitoneally. The spontaneous, open field video analysis system was used to record the mouse movement trajectory within 45 min after administration of test drug or saline, and then the mouse movement trajectory within 75 min after PCP administration. Spontaneous, open field video analysis system was used to analyze the mouse's movement trajectory, and the total distance of the movement of the mice in each group was counted. The result was expressed as mean±SD. Results were analyzed by one-way analysis of variance.

| pIC50 [1] | pIC50 [2] | pEC50 [3] | Structure (SMILES) | Effective Dose [4] [mg/kg] |
| --- | --- | --- | --- | --- |
| 6.77 | 7.46 | 6.35 | COc1cc2c(cc1C(N)=O)[C@@H]1Cc3ccc(OC)c(OC)c3CN1CC2 [Example 5, (S)-2-carbamoyl-3,9,10-trimethoxy-6,8,13,13a-tetrahydro-5H-dibenzo [a,g] quinolizine] | 10 |
| 6.30 | 6.12 | 5.77 | COc1cc2c(cc1CNC(C)=O)[C@@H]1Cc3ccc(OC)c(OC)c3CN1CC2 [Example 11, (S)-2-acetaminomethyl-3,9,10-trimethoxy-6,8,13,13a-tetrahydro-5H-dibenzo[a,g] quinolizine] | 10 |
| 6.62 | 6.30 | 5.64 | COc1cc2c(cc1C(C)=O)[C@@H]1Cc3ccc(OC)c(OC)c3CN1CC2 [Example 12, (S)-2-acetyl-3,9,10-trimethoxy-6,8,13,13a-tetrahydro-5H-dibenzo [a,g] quinolizine] | – |
| – | – | 6.29 | COc1cc2c(cc1NC(C)=O)[C@@H]1Cc3ccc(OC)c(OC)c3CN1CC2 [Example 14, (S)-2-acetamido-3,9,10-trimethoxy-6,8,13,13a4tetrahydro-5H-dibenzo[a,g] quinolizine hydrochloride] | 10 |
| 5.82 | – | 6.62 | COc1cc2c(cc1OC)[C@@H]1Cc3ccc(OC)c(C(C)=O)c3CN1CC2 [Example 21, (S)-2,3,10-trimethoxy-9-acetyl-6,8,13,13a-tetrahydro-5H-dibenzo [a,g] quinolizine] | 20 |
| – | – | 5.72 | COc1cc2c(cc1OC)[C@@H]1Cc3ccc(OC)c(CNC(C)=O)c3CN1CC2 [Example 23, (S)-2,3,10-trimethoxy-9-acetylaminomethyl-6,8,13,13a-tetrahydro-5H-dibenzo[a,g] quinolizine] | – |
| 6.51 | 6.00 | 5.92 | COc1cc2c(cc1OC)[C@@H]1Cc3ccc(C#N)c(OC)c3CN1CC2 [Example 27, (S)-2,3,9-trimethoxy-10-cyano-6,8,13,13a-tetrahydro-5H-dibenzo[a,g] quinolizine] | – |
| – | – | 5.23 | COc1ccc2c(c1OC)CN1CCc3cc(C#N)c(C#N)cc3C1C2 (stereo not drawn) [Example 35, 2,3-dicyano-9,10-dimethoxy-6,8,13,13a-tetrahydro-5H-dibenzo[a,g] quinolizine] | – |
| 6.68 | 7.72 | 5.52 | COc1cc2c(cc1C#N)[C@@H]1Cc3ccc(C#N)c(OC)c3CN1CC2 [Example 37, (S)-2,10-dicyano-3,9-dimethoxy-6,8,13,13a-tetrahydro-5H-dibenzo [a,g] quinolizine] | – |
| 5.47 | 6.21 | 5.34 | COc1cc2c(cc1C(N)=O)[C@@H]1Cc3ccc(C(N)=O)c(OC)c3CN1CC2 [Example 38, (S)-2,10-dicarbamoyl-3,9-dimethoxy-6,8,13,13a-tetrahydro-5H-dibenzo[a,g] quinolizine] | – |
| 7.51 | 6.54 | – | COc1ccc2c(c1OC)CN1CCc3cc(OC)c4nc[nH]c4c3[C@@H]1C2 [Example 42, (S)-4,10,11-trimethoxy-1,6,7,9,14,14a-hexahydroimidazo[4,5-h] isoquinolino[3,2-a]isoquinoline] | 10 |
| 6.42 | 6.74 | – | COc1ccc2c(c1OC)CN1CCc3cc4[nH]c(=O)oc4cc3C1C2 (stereo not drawn) [Example 46, 9,10-Dimethoxy-3,5,6,8,13,13a-Hexahydro-2H-isoquinolino[3,2-a] oxazolo[4,5-g]isoquinolin-2-one] | 10 |
| 7.70 | 6.84 | – | COc1ccc2c(c1OC)CN1CCc3cc4c(cc3C1C2)OCC(=O)N4 (stereo not drawn) [Example 47, 10,11-Dimethoxy-4,6,7,9,14,14a-Hexahydroisoquinolino[3,2-a][1,4] oxazino[3,2-g]isoquinoline-3(2H)-one] | 10 |
| 6.66 | 6.35 | – | C=CCOc1cc2c(cc1OC)CCN1Cc3c(ccc(OC)c3OC)C[C@@H]21 [Example 52, (S)-2-allyloxy-3,9,10-trimethoxy-6,8,13,13a-tetahydro-5H-dibenzo [a,g] quinolizine] | 20 |
| 6.02 | 5.89 | – | COc1cc2c(cc1OC1CC1)[C@@H]1Cc3ccc(OC)c(OC)c3CN1CC2 [Example 53, (S)-2-cyclopropoxy-3,9,10-trimethoxy-6,8,13,13a-tetrahydro-5H-dibenzo[a,g] quinolizine hydrochloride] | 20 |
| 5.98 | 5.55 | 6.82 | COc1cc2c(cc1OC)[C@@H]1Cc3ccc(OC)c(OCCO)c3CN1CC2 [Example 56, (S)-2,3,10-trimethoxy-9-hydroxyethoxy-6.8,13,13a-tetrahydro-5H-dibenzo[a,g] quinolizine] | 20 |
| – | – | 6.96 | COc1cc2c(cc1OC)[C@@H]1Cc3ccc(OC)c(OC4CC4)c3CN1CC2 [Example 57, (S)-2,3,10-trimethoxy-9-cyclopropoxy-6,8,13,13a-tetrahydro-5H-dibenzo[a,g] quinolizine hydrochloride] | 20 |

| Structure (SMILES) | pIC50 [1] | pIC50 [2] | pEC50 [3] | Effective Dose [4] [mg/kg] |
| --- | --- | --- | --- | --- |
| COc1ccc2c(c1OC)CN1CCc3cc(OC)c4[nH]c(=O)[nH]c4c3[C@@H]1C2 [Example 40, (S)-4,10,11-trimethoxy-3,6,7,9,14,14a-hexahydroimidazo[4,5-h] isoquinolino[3,2-a]isoquinoline-2(1H)-one] | 8.40 | 7.57 | – | 20 |
